# Data as given in patent publication US20160291027A1, “METHODS FOR […] ABILITY OF A Z[…] COMPOUND TO TREAT CANCER” (Eisai R&D Management Co., Ltd., priority 2007, published 2016).
# Tested on: cell lines which carried a BRAF V600E mutation
# Assay: Cell growth assay (CellTiter-Glo or methylene blue) in solid cancer cell lines
# Assay type: cell-based
# Conditions: 96 hours, 0.3-10000 nM
# Description: In a separate experiment, Compounds 091 and 106 were tested in solid cancer cell lines from different tissue types (shown in FIG. 3B for 21 cell lines for compound 091 and 19 cell lines for compound 106). All cell lines were introduced into 96-well plates and grown in the absence or continuous presence of 0.3-10000 nM of either compound 091 or compound 106 for 96 hours. Cell growth was assessed using a CellTiter-Glo® Luminescent Cell Viability Assay (Promega) or a methylene blue assay. IC50 values were determined as the concentration of a substance which inhibits cell growth by 50% compared to untreated cell populations.
structure (smiles),measurement,value
CNc1cc(O)c2c(c1)/C=C/C[C@H](O)[C@H](O)C(=O)/C=C\[C@@H](C)[C@H](C)OC2=O [Compound 091],Sensitivity of BRAF V600E cell lines (concentration range),low-nM or sub-μM concentration range
